This is an account of results in paper PMC5796017, “Enantiomeric Effect of D-Amino Acid Substitution on the Mechanism of Action of α-Helical Membrane-Active Peptides” (International Journal of Molecular Sciences, 2017).

In general, MIC refers to the smallest concentration in the dilution series that meets the test's criterion for growth inhibition. What is called IC50 is the concentration that inhibits the measured activity by half. A lower IC50 goes with greater potency in that assay.

Series [1] can be described thus: RP-HPLC retention time as relative hydrophobicity. The class given is physicochemical. To be noted: 25 °C, used by the paper as measure of relative hydrophobicity. On the procedure: The RP-HPLC retention time has been widely used to represent the relative hydrophobicity of peptides in many studies.The relative hydrophobicity of the peptides was determined by the RP-HPLC retention times at 25 °C. The change in hydrophobicity of the peptides caused by D-amino acid substitutions was mainly due to the disruption of the helical structure.

Series [2] is described as follows: Circular dichroism (CD) secondary structure. The class given is physicochemical. To be noted: for [θ]222, benign / [θ]222, 50% TFE: CD, 75 μM peptide, 25 °C; for [θ]222, benign: KP buffer (100 mM KCl, 50 mM KH2PO4/K2HPO4, pH 7.4); for [θ]222, 50% TFE / α-Helix (%), 50% TFE (relative helicity): KP buffer with 50% TFE; for α-Helix (%), 50% TFE (relative helicity) / α-Helix (%), benign: relative to molar ellipticity of V13K in 50% TFE; for α-Helix (%), benign: KP buffer. The source says:
The influence of the amino acid substitutions on the peptide secondary structure were investigated using circular dichroism (CD) spectroscopy under benign conditions (KP buffer) and under conditions designed to mimic the hydrophobic environment of the membrane (KP buffer with 50% TFE). D-amino acid substitutions reduced the helicity of the peptide analogs relative to that of peptide V13K, in both KP buffer and KP buffer with 50% TFE. […] As shown in Table 2 and Figure S1, the values of the relative helicity of peptides with polar face substitutions are in the order of K14D (76.99%) > S11D/K14D (51.33%) > S11D/K14D/T15D (38.67%). Similarly, the relative helicity of the peptides with substitutions on the non-polar face follows the same trend: A12D (70.83%) > F9D/A12D (38.26%) > F9D/A12D/V16D (36.41%). Since the values of the relative helicity of the peptides with D-amino acid substitutions on the non-polar face were less than those peptide analogs with the same number of D-amino acid substitutions on the polar face, it is clear that the amino acid residues on the non-polar face may be more important for stabilizing the α-helical structure than residues on the polar face.
The secondary structures of the peptides were examined using a Jasco J-810 CD spectrometer (Jasco, Easton, MD, USA) at 25 °C as described previously. […] The mean residue molar ellipticities were calculated according to the equation [θ] = θ/10lCMn, in which, θ represents the ellipticity in millidegrees, l is the optical path length of the cuvette in centimeters, CM is the peptide concentration in mol/L, and n is the number of residues in the peptide. The mean residue molar ellipticities at 222 nm, [θ]222 (degree·cm^2·dmol^−1), were used to calculate the relative helical content of the peptides.
(In general: Circular dichroism is the unequal absorption of left and right circularly polarised light.)

Series [3] has as its system S. aureus ATCC25923. The experiment in a line: Antimicrobial activity, microtiter dilution MIC. To be noted: G+; MH medium, 5 × 10^5 CFU/mL, 37 °C, 24 h, triplicate. Format: cell-based, Staphylococcus aureus. The protocol:
(§1) The antimicrobial activity of the peptides was determined by the standard microtiter dilution method and indicated as MIC (minimal inhibitory concentration) as described previously. Briefly, bacteria were cultured in Mueller–Hinton (MH) medium overnight at 37 °C, diluted to a final inoculum of 5 × 10^5 colony-forming units (CFU)/mL with MH and loaded into 96-well microtiter plates (90 μL/well) with serial dilution of peptides (10 μL/well), with a further incubation at 37 °C for 24 h. MIC was expressed as the lowest peptide concentration that inhibited the growth of bacteria. The antimicrobial assays were repeated in triplicate.

The test system of series [4] is S. epidermidis ATCC12228. The experiment in a line: Antimicrobial activity, microtiter dilution MIC. The note with it: G+; MH medium, 5 × 10^5 CFU/mL, 37 °C, 24 h, triplicate. The class given is cell-based, Staphylococcus epidermidis. The protocol:
as §1

In series [5] the test system is P. aeruginosa ATCC27853. Briefly: Antimicrobial activity, microtiter dilution MIC. To be noted: G−; MH medium, 5 × 10^5 CFU/mL, 37 °C, 24 h, triplicate. The class given is cell-based, Pseudomonas aeruginosa. On the procedure: as §1
Series [6] concerns E. coli ATCC25922. Briefly: Antimicrobial activity, microtiter dilution MIC. The class given is cell-based, Escherichia coli. The note with it: G−; MH medium, 5 × 10^5 CFU/mL, 37 °C, 24 h, triplicate. The protocol: as §1
Series [7] has as its system human red blood (hRBC) cells. Briefly: Hemolytic activity assay. Format: cell-based. The note with it: 2% human RBC in PBS, 37 °C, 2 h, absorbance 578 nm, triplicate. The protocol:
The […] of the peptides was measured by a hemolytic activity assay as described previously. Briefly, healthy human RBCs were collected using an anticoagulation tube with EDTAK2 and centrifuged at 1000 rpm for 5 min. The erythrocytes were washed three times, then diluted to a concentration of 2% in phosphate-buffered saline (PBS). The peptides were serially diluted in PBS and 70 μL of the peptide solutions and 2% RBC suspension were added simultaneously to each well of a 96-well plate (round bottom) for a further incubation at 37 °C for 2 h. Then, the plates were centrifuged for 10 min at 3000 rpm and the supernatant (90 μL) was transferred to a 96-well plate (flat bottom). The absorbance of the supernatant was measured on a microplate reader at 578 nm. Erythrocytes in PBS and distilled water were used as the negative (0%) and positive (100%) controls, respectively. The hemolytic activity was calculated as the percentage of experimental group over positive control (100%), after subtraction of negative control (0%). The hemolytic assays were repeated in triplicate.

Series [8] deals with BxPC-3. The experiment in a line: MTT cell viability assay. The class given is cell-based, human. The note with it: BxPC-3, MTT, 24 h; mean ± SEM of three independent determinations. The protocol:
(§2) HeLa, MIA PaCa-2, HPAC, and Bxpc-3 cells were maintained in Dulbecco’s modified Eagle medium) with 10% fetal bovine serum, penicillin (100 U/mL), and streptomycin ([…]) in a humid atmosphere at 37 °C with 5% CO2. The effect of the peptides on the survival of HeLa, MIA PaCa-2, HPAC, and Bxpc-3 cells was determined by 3-(4,5-dimethyl-2-thiazolyl)-2,5-diphenyl-2H-tetrazolium bromide (MTT) assay, as described in a previous study. Briefly, cells were seeded in 96-well plates at a density of 5000 per well. After overnight incubation, cells were incubated, in the absence, or presence of various concentrations of peptides for 24 h. Then, the formazan crystals formed by MTT were dissolved with dimethyl sulfoxide (DMSO) and the absorbance was determined at 492 nm with a microplate reader (GF-M3000; Gaomi Caihong Analytical Instruments Co., Shandong, China). The results were expressed as IC50 values, representing the concentration at which cell viability was reduced by 50%. The cytotoxicity assays were repeated in triplicate.
Background: Formazan colour is commonly taken as a measure of viable cells.

Series [9] concerns HPAC. The experiment in a line: MTT cell viability assay. Format: cell-based, human. To be noted: 24 h, mean ± SEM of three independent determinations. The protocol: as §2
Series [10] deals with HeLa. The experiment in a line: MTT cell viability assay. The class given is cell-based, human. To be noted: 24 h, mean ± SEM of three independent determinations. The protocol: as §2
Series [11] concerns MIA PaCa-2. Briefly: MTT cell viability assay. To be noted: MIA PaCa-2, MTT, 24 h; mean ± SEM of three independent determinations. Format: cell-based, human. The protocol:
as §2

Each structure is given as a SMILES string. Values after ≈ are worked out from the molar mass of the structure shown.

As for `CC[C@H](C)[C@H](NC(=O)[C@H](C)NC(=O)[C@H](CCCCN)NC(=O)[C@H](CC(C)C)NC(=O)[C@H](C)NC(=O)[C@@H](NC(=O)[C@H](Cc1c[nH]cn1)NC(=O)[C@H](CC(C)C)NC(=O)[C@@H](NC(=O)[C@H](NC(=O)[C@@H](CCCCN)NC(=O)[C@H](CCCCN)NC(=O)[C@H](C)NC(=O)[C@@H](CO)NC(=O)[C@H](CCCCN)NC(=O)[C@H](Cc1ccccc1)NC(=O)[C@@H](NC(=O)[C@H](CCCCN)NC(=O)[C@H](CC(C)C)NC(=O)[C@H](Cc1ccccc1)NC(=O)[C@H](CO)NC(=O)[C@H](CCCCN)NC(=O)[C@H](Cc1c[nH]c2ccccc12)NC(=O)[C@H](CCCCN)NC(C)=O)[C@@H](C)O)[C@H](C)O)C(C)C)[C@@H](C)O)C(=O)N[C@@H](CO)C(=O)N[C@@H](CO)C(N)=O` [S11D/K14D/T15D], the “tR (RP-HPLC retention time), relative hydrophobicity” value (from here on “tR … relative hydrophobicity”) in [1] is 39.59 min. In series [2], the “[θ]222, benign” value is given as −2845.85 degree·cm^2·dmol^−1. The “[θ]222, 50% TFE” value in series [2] is −19,537.5 degree·cm^2·dmol^−1. In addition, in series [2], the “α-Helix (%), 50% TFE (relative helicity)” value was determined as 38.67%. In addition, the “α-Helix (%), benign” value in series [2] is 5.6%. Further, the MIC in series [3] turned out to be 64 µM (≈ 191 µg/mL); in series [4] it was 16 µM (≈ 47.9 µg/mL); in series [5], 125 µM (≈ 374 µg/mL); in series [6], 125 µM (≈ 374 µg/mL). For the same molecule, the “MHC (minimal hemolytic concentration)” value in series [7] worked out at 250 µM. Also, the IC50 came out at 45.5 ± 5.6 µM in series [8], 54.2 ± 1.2 µM in series [9], 41.1 ± 0.5 µM in series [10] and 56.8 ± 3.3 µM in [11].

`CC[C@H](C)[C@H](NC(=O)[C@H](C)NC(=O)[C@H](CCCCN)NC(=O)[C@H](CC(C)C)NC(=O)[C@H](C)NC(=O)[C@@H](NC(=O)[C@H](Cc1c[nH]cn1)NC(=O)[C@H](CC(C)C)NC(=O)[C@@H](NC(=O)[C@H](NC(=O)[C@@H](CCCCN)NC(=O)[C@H](CCCCN)NC(=O)[C@H](C)NC(=O)[C@H](CO)NC(=O)[C@H](CCCCN)NC(=O)[C@H](Cc1ccccc1)NC(=O)[C@@H](NC(=O)[C@H](CCCCN)NC(=O)[C@H](CC(C)C)NC(=O)[C@H](Cc1ccccc1)NC(=O)[C@H](CO)NC(=O)[C@H](CCCCN)NC(=O)[C@H](Cc1c[nH]c2ccccc12)NC(=O)[C@H](CCCCN)NC(C)=O)[C@@H](C)O)[C@H](C)O)C(C)C)[C@@H](C)O)C(=O)N[C@@H](CO)C(=O)N[C@@H](CO)C(N)=O` [K14D/T15D]: the “tR … relative hydrophobicity” value in [1] is listed as 40.41 min. Further, the “[θ]222, benign” value in series [2] is reported as −1862.4 degree·cm^2·dmol^−1. Besides, in series [2], the “[θ]222, 50% TFE” value is given as −28,551.5 degree·cm^2·dmol^−1. Also, the “α-Helix (%), 50% TFE (relative helicity)” value in [2] is 56.51%. The “α-Helix (%), benign” value in series [2] is on record as 3.7%. In addition, the MIC in series [3] was 64 µM (≈ 191 µg/mL); in series [4], 16 µM (≈ 47.9 µg/mL); in series [5] it was 32 µM (≈ 95.7 µg/mL); in series [6] it was 64 µM (≈ 191 µg/mL). Further, the “MHC (minimal hemolytic concentration)” value in series [7] is 250 µM. Moreover, the IC50 in series [8] is 24.1 ± 5.5 µM; in series [9], 22.5 ± 0.5 µM; in [10], 31.6 ± 2.1 µM; in [11] it was 47.1 ± 5.3 µM.

In the case of `CC[C@H](C)[C@H](NC(=O)[C@H](C)NC(=O)[C@H](CCCCN)NC(=O)[C@H](CC(C)C)NC(=O)[C@H](C)NC(=O)[C@@H](NC(=O)[C@H](Cc1c[nH]cn1)NC(=O)[C@H](CC(C)C)NC(=O)[C@@H](NC(=O)[C@@H](NC(=O)[C@H](CCCCN)NC(=O)[C@H](CCCCN)NC(=O)[C@@H](C)NC(=O)[C@H](CO)NC(=O)[C@H](CCCCN)NC(=O)[C@H](Cc1ccccc1)NC(=O)[C@@H](NC(=O)[C@H](CCCCN)NC(=O)[C@H](CC(C)C)NC(=O)[C@H](Cc1ccccc1)NC(=O)[C@H](CO)NC(=O)[C@H](CCCCN)NC(=O)[C@H](Cc1c[nH]c2ccccc12)NC(=O)[C@H](CCCCN)NC(C)=O)[C@@H](C)O)[C@@H](C)O)C(C)C)[C@@H](C)O)C(=O)N[C@@H](CO)C(=O)N[C@@H](CO)C(N)=O` [Peptide A12D], the “tR … relative hydrophobicity” value in series [1] worked out at 41.46 min. Moreover, the “[θ]222, benign” value in series [2] is on record as −4130.9 degree·cm^2·dmol^−1. For the same molecule, the “[θ]222, 50% TFE” value in [2] is reported as −35,785.1 degree·cm^2·dmol^−1. The “α-Helix (%), 50% TFE (relative helicity)” value in [2] is recorded as 70.83%. Besides, the “α-Helix (%), benign” value in series [2] was determined as 8.2%. Further, the MIC in [3] turned out to be 64 µM (≈ 191 µg/mL); in series [4], 16 µM (≈ 47.9 µg/mL); in series [5], 16 µM (≈ 47.9 µg/mL); in series [6] it was 32 µM (≈ 95.7 µg/mL). Moreover, the “MHC (minimal hemolytic concentration)” value in series [7] is 125 µM. For the same molecule, the IC50 was determined as 45.1 ± 1 µM in series [8], 15.5 ± 1.7 µM in [9], 28.8 ± 0.8 µM in series [10] and 29.9 ± 4.8 µM in [11].
